Counter-ions that a name gives are not always drawn.
These compounds were tested against T1, rat LHRH receptor (Rattus norvegicus, UniProt P30969) (assay: LHRH receptor-ligand binding assay (transfected LTK cells)). Settings: not given.
T1 construct: expressed in transfected cells; host or cells: LTK cells (mouse fibroblasts, ATCC CCL-1.3)
T1 sequence (P30969 1-327): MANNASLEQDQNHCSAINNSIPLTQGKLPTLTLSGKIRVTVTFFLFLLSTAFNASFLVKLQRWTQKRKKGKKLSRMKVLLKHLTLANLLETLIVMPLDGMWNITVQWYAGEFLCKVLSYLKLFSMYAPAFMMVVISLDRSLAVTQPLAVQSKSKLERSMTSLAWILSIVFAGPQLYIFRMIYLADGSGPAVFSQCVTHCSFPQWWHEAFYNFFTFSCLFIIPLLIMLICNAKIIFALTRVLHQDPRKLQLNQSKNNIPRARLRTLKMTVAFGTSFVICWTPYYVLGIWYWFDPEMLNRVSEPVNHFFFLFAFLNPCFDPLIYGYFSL
Method: ^125I-Triptorelin [^125I-(D)-Trp6-GnRH] was purchased from Biotrend (Cologne, Germany).
The specific activity was in each case 2.13 Ci/mmol.
LTK cells (mouse fibroblasts: ATCC No. CCL-1.3) which have been transfected with the rat LHRH receptor are cultivated in DMEM medium (Invitrogen Life Technologies, Germany) with penicillin (100 I.U./ml), streptomycin (0.1 mg/ml) and glutamine (0.01 mol/l) and 10% fetal calf serum (FCS; Invitrogen Life Technologies, Germany) on plastic tissue culture plates (Nunc, Germany, 245×245-20 mm).
80% confluent cell culture plates are washed twice with 50 ml of phosphate-buffered saline (PBS) and then detached with 0.01 M EDTA solution. The cells are pelleted by centrifugation at 200·g for 5 min in a laboratory centrifuge (Kendro, Germany). The cell pellet is resuspended in 3 ml of binding medium (DMEM; 10 mM Hepes; 0.5% BSA; 0.1% […]; 1 g/l bacitracin (add fresh, stock 100×); 0.1 g/l SBTI (add fresh, stock 1000×) and the cell count is determined by Trypan blue staining in a Neubauer counting chamber. The cell suspension is adjusted with binding medium to a concentration of 5×10^5 cells/0.05 ml.
Binding studies for competition plots are carried out as duplicates. The test substances are employed as 10 mM DMSO solutions. They are diluted to 4 times the final concentration employed with binding medium. 25 μl of the substance dilution are mixed with 25 μl of tracer solution (^125I-triptorelin or ^125I-cetrorelix). The tracer concentration is adjusted to approx. 50 000 cpm (measured in a Cobra II, γ counter. PE Liefe Science, Germany) in the final reaction volume of 100 μl.
200 μl of silicone/liquid paraffin mixture (84%:16%) are introduced into 650 μl conical tubes (Roth. Germany). 50 μl of the cell suspension are pipetted thereon, followed by 50 μl of the test substance/tracer mixture. The tubes are capped and incubated with vertical rotation in an incubator at 37° C. for 60 min. After incubation, the samples are centrifuged in a centrifuge (Kendro, Germany) at 900 rpm and subsequently shock-frozen in liquid N2. The tip with the cell pellet is cut off and transferred into prepared counting vials (Roth, Germany). The remainder of the conical tube with the remaining supernatant is likewise transferred into a counting vial. The measurement takes place in a γ counter for 1 min/sample.
Evaluation of the samples takes place after calculation of the specific binding compared with untreated cells, after subtraction of the nonspecific binding (excess of unlabeled ligand, 1 μM) by means of GraphPad Prism or alternatively by means of OMMM software.

Compound	EC50 [µM]
CCC(C)[C@H](NC(=O)[C@@]1(NC(=O)[C@H](CCc2ccc(OP(=O)(O)O)cc2)NC(=O)OCc2ccccc2)CCc2[nH]c3c(Cl)cc(Cl)cc3c2C1)C(N)=S (stereo partly drawn) [Compound 12, benzyl[(S)-1-[(R)-6,8-dichloro-3-((S)-2-methyl-1-thiocarbamoylbutylcarbamoyl)-2,3,4,9-tetrahydro-1H-carbazol-3-ylcarbamoyl]-3-(4-phosphonooxyphenyl)propyl]carbamate]	0.0392

Same assay, conditions: LTK cells transfected with rat LHRH receptor, 125I-triptorelin tracer, 37° C., 60 min; read-out: Binding to r-LHRHR EC50

EC50 [µM]	Compound
0.525	CC(C)[C@H](NC(=O)[C@@]1(NC(=O)[C@H](CCCCN)NC(=O)CCc2ccc(F)cc2)CCc2[nH]c3c(Cl)cc(Cl)cc3c2C1)C(N)=O [Compound 17, (S)-5-[(R)-3-((S)-1-carbamoyl-2-methylpropylcarbamoyl)-6,8-dichloro-2,3,4,9-tetrahydro-1H-carbazol-3-ylcarbamoyl]-5-[3-(4-fluorophenyl)propionylamino]pentylammonium trifluoroacetate]
0.0246	CCC(C)[C@H](NC(=O)[C@@]1(NC(=O)[C@H](CCc2ccc(O)cc2)NC(=O)CCc2ccccc2F)CCc2[nH]c3c(Cl)cc(Cl)cc3c2C1)C(N)=O (stereo partly drawn) [Compound 22]
0.0729	CCC(C)[C@H](NC(=O)[C@@]1(NC(=O)[C@@H](NC(=O)CCc2ccccc2F)C(C)CC)CCc2[nH]c3c(Cl)cc(Cl)cc3c2C1)C(N)=O (stereo partly drawn) [Compound 23, (R)-6,8-dichloro-3-{(S)-2-[3-(2-fluorophenyl)propionylamino]-3-methylpentanoylamino}-2,3,4,9-tetrahydro-1H-carbazole-3-carboxylic acid ((S)-1-carbamoyl-2-methylbutyl)amide]
0.0135	CCC(C)[C@H](NC(=O)[C@@]1(NC(=O)[C@H](CCc2ccc(OCCOCCOCCOCCOC)cc2)NC(=O)OCc2ccccc2)CCc2[nH]c3c(Cl)cc(Cl)cc3c2C1)C(N)=S (stereo partly drawn) [Compound 24, benzyl {(S)-1-[(R)-6,8-dichloro-3-((S)-2-methyl-1-thiocarbamoylbutylcarbamoyl)-2,3,4,9-tetrahydro-1H-carbazol-3-ylcarbamoyl]-3-[4-(2-{2-[2-(2-methoxyethoxy)ethoxy]-ethoxy}ethoxy)phenyl]propyl}carbamate]
0.0042	CCC(C)[C@H](NC(=O)OCc1ccccc1)C(=O)N[C@]1(C(=O)N[C@H](C(N)=S)C(C)CC)CCc2[nH]c3c(Cl)cc(F)cc3c2C1 (stereo partly drawn) [Compound 25, benzyl {(S)-1-[(R)-8-chloro-6-fluoro-3-((S)-2-methyl-1-thiocarbamoylbutylcarbamoyl)-2,3,4,9-tetrahydro-1H-carbazol-3-ylcarbamoyl]-2-methylbutyl}carbamate]

The next lines start with the compound.

Compound	EC50 [µM]
2-chlorobenzyl {(S)-1-[(R)-3-((S)-carbamoyl-2-methylbutylcarbamoyl)-6,8-dichloro-2,3,4,9-tetrahydro-1H-carbazol-3-ylcarbamoyl]-2-methylbutyl}carbamate [Compound 6]	0.104
CC(C)[C@H](NC(=O)[C@@]1(NC(=O)[C@@H](NC(=O)OCc2ccc(Cl)cc2)C(C)C)CCc2[nH]c3c(Cl)cc(Cl)cc3c2C1)C(N)=O [Compound 1, 4-chlorobenzyl {(S)-1-[(R)-3-((S)-1-carbamoyl-2-methylpropylcarbamoyl)-6,8-dichloro-2,3,4,9-tetrahydro-1H-carbazol-3-ylcarbamoyl]-2-methylpropyl}carbamate]	0.261
CCC(C)[C@H](NC(=O)OCc1ccc(Cl)cc1)C(=O)N[C@]1(C(=O)N[C@H](C(N)=O)C(C)C)CCc2[nH]c3c(Cl)cc(Cl)cc3c2C1 (stereo partly drawn) [Compound 2, 4-chlorobenzyl {(S)-1-[(R)-3-((S)-1-carbamoyl-2-methylpropylcarbamoyl)-6,8-dichloro-2,3,4,9-tetrahydro-1H-carbazol-3-ylcarbamoyl]-2-methylbutyl}carbamate]	0.205
CCC(C)[C@H](NC(=O)[C@@]1(NC(=O)[C@@H](NC(=O)OCc2ccc(Cl)cc2)C(C)CC)CCc2[nH]c3c(Cl)cc(Cl)cc3c2C1)C(N)=O (stereo partly drawn) [Compound 3, 4-chlorobenzyl {(S)-1-[(R)-3-((S)-carbamoyl-2-methylbutylcarbamoyl)-6,8-dichloro-2,3,4,9-tetrahydro-1H-carbazol-3-ylcarbamoyl]-2-methylbutyl}carbamate]	0.0472
CCC(C)[C@H](NC(=O)[C@@]1(NC(=O)[C@@H](NC(=O)Cc2cccc(F)c2)C(C)CC)CCc2[nH]c3c(Cl)cc(Cl)cc3c2C1)C(N)=O (stereo partly drawn) [Compound 5, (R)-6,8-dichloro-3-{(S)-2-[2-(3-fluorophenyl)acetylamino]-3-methylpentanoylamino}-2,3,4,9-tetrahydro-1H-carbazole-3-carboxylic acid ((S)-1-carbamoyl-2-methylbutyl)amide]	0.0983
CCC(C)[C@H](NC(=O)[C@@]1(NC(=O)[C@H](CCc2ccc(OC(=O)OCc3ccccc3)cc2)NC(=O)OCc2ccccc2)CCc2[nH]c3c(Cl)cc(Cl)cc3c2C1)C(N)=O (stereo partly drawn) [Compound 8, benzyl 4-{(S)-3-benzyloxycarbonylamino-3-[(R)-3-((S)-1-carbamoyl-2-methylbutylcarbamoyl)-6,8-dichloro-2,3,4,9-tetrahydro-1H-carbazol-3-ylcarbamoyl]propyl}phenylcarbonate]	0.0453
CCC(C)[C@H](NC(=O)Cc1ccccc1F)C(=O)N[C@]1(C(=O)N[C@H](C(N)=S)C(C)CC)CCc2[nH]c3c(Cl)cc(Cl)cc3c2C1 (stereo partly drawn) [Compound 13, (R)-6,8-dichloro-3-{(S)-2-[2-(2-fluorophenyl)acetylamino]-3-methylpentanoylamino}-2,3,4,9-tetrahydro-1H-carbazole-3-carboxylic acid ((S)-2-methyl-1-thiocarbamoylbutyl)amide]	0.0024
CCC(C)[C@H](NC(=O)[C@@]1(NC(=O)[C@H](CCc2ccc(O)cc2)NC(=O)Cc2ccccc2F)CCc2[nH]c3c(Cl)cc(Cl)cc3c2C1)C(N)=S (stereo partly drawn) [Compound 14, (R)-6,8-dichloro-3-[(S)-2-[2-(2-fluorophenyl)acetylamino]-4-(4-hydroxyphenyl)butyrylamino]-2,3,4,9-tetrahydro-1H-carbazole-3-carboxylic acid ((S)-2-methyl-1-thiocarbamoyl-butyl)amide]	0.00205
CCC(C)[C@H](NC(=O)CCc1ccc(F)cc1)C(=O)N[C@]1(C(=O)N[C@H](C(N)=O)C(C)C)CCc2[nH]c3c(Cl)cc(Cl)cc3c2C1 (stereo partly drawn) [Compound 16, (R)-6,8-dichloro-3-((S)-2-[3-(4-fluorophenyl)propionylamino]-3-methylpentanoylamino)-2,3,4,9-tetrahydro-1H-carbazole-3-carboxylic acid ((S)-1-carbamoyl-2-methylpropyl)amide]	0.628

From patent US8067456B2 (AEterna Zentaris GmbH, priority 2004, dated 2011)
